Test results from ChEMBL document CHEMBL3507680, “University of Dundee, Gates Library screen for HepG2 cell viability”.

experiment: Human HepG2 cell viability assay in 384 well format; format: toxicity, cell-based; parameters: dose 125 nL, time 70.5 hour; concentration not given beside the values; details: HepG2 cells, read-out: Inhibition

SMILES	cytotoxicity at 70.5 h [%]
CCCc1cc(C(=O)Nc2nc(SC)ns2)n(C)n1	-13.2
COc1ccc(CNC(C)c2ccc3[nH]c(=O)[nH]c3c2)cc1 (stereo unspecified)	-2.85
COCCC(=O)N1CCOCC2(CCN(Cc3cccs3)C2)C1 (stereo unspecified)	-12.3
O=C(Cc1ccc2c(c1)CCO2)Nc1ccc(-n2cncn2)nc1	16.4
CC(C(=O)NC1CC1)S(=O)(=O)Cc1nc(Cc2ccccc2)no1 (stereo unspecified)	-0.763
O=C(Cc1cccc(O)c1)NCCNc1nccc(C(F)(F)F)n1	-7.29
COC(=O)CCNC(=O)c1nnn(-c2ccccc2)c1C(F)(F)F	0.121
COCC(=O)N1Cc2nc3c(C)c(-c4cccs4)nn3c(O)c2C1	-0.72
CCC(=O)c1ccccc1NN1c2ccccc2C(=O)C1(C)OC (stereo unspecified)	4.64
CCN(CC)CCNS(=O)(=O)c1cccc(CSC)c1	-8.72
CN(C)CCO[C@H]1C[C@@H](O)C12CCN(c1nccc3ccccc13)CC2	-10.3
CC(=O)N1CCC(C(=O)Nc2nnc(C(F)(F)F)[nH]2)CC1	-8.53
O=C(NCc1cccnc1)[C@H]1C[C@@H]2CCN(c3ccncn3)C[C@H]2O1	-5.01
COCCNC(=O)[C@H]1CN2CCC1C[C@@H]2Cn1cc(C(C)(C)C)nn1 (stereo partly specified)	-0.883
CN(C)C(=O)N1C[C@H](Oc2ccccn2)[C@H]2OCCC[C@H]21	-7.83
CN(C)C(=O)c1cccc(NC(=O)N(CCO)Cc2ccsc2)c1	-4.45
Cc1ccc(-c2nc(CN3CCCC3Cn3cncn3)co2)cc1 (stereo unspecified)	1.81
CS(=O)(=O)N1CCC(C(=O)NCCNc2ncccn2)CC1	-19.2
CC(C)N1CCc2[nH]nc(C(=O)N3CCCC3C)c2C1 (stereo unspecified)	-4.03
COc1cccc([C@H]2CN(C(=O)c3scc4c3CCCC4)C[C@@H]2N)c1	-12
Cc1ccc(-c2noc(C3CCN3C(=O)c3cc[nH]n3)n2)s1 (stereo unspecified)	-14.3

SMILES	cytotoxicity at 70.5 h [%]
C[C@@H]1CN(C2CCN(c3ccccc3F)CC2)C[C@]1(C)O	-6.48
O=C1CC(N2CCN(c3ccccc3O)CC2)C(=O)N1Cc1cccs1 (stereo unspecified)	-12.2
O=C(Nc1ccncc1)NC1CCN(c2ccccc2Cl)C1=O (stereo unspecified)	-5.27
O=S1(=O)c2cnccc2OC(COc2ccccc2)CN1CC1CC1 (stereo unspecified)	-1.49
CC(C)(C(=O)NCCCC(N)=O)c1cccc(Br)c1	-8.19
CCCC(=O)N1CCN(CC(O)COCC)CC1 (stereo unspecified)	1.27
Cc1ccc(C(=O)N2CCC(c3nccn3Cc3ccncc3)CC2)s1	-8.45
CCn1cnnc1C1CCN(C(=O)c2c(C)oc(C)c2C)CC1	0.3
Cc1ccc2oc(SCC(=O)NC(C)(C)C)nc2n1	-6.39
Cc1ncsc1CCN(C)C(=O)c1ncccc1O	-7.99
C[C@]1(O)CN(Cc2ncccc2F)CC[C@@H]1Oc1cccc(F)c1	-5.53
Cc1noc(C)c1C(C)NC(=O)N1CCC(NC(=O)c2ccsc2)CC1 (stereo unspecified)	-6.79
O=C(c1ccco1)N1CC[C@H]2[C@H]1CC(=O)N2c1cccnc1	21.7
CCn1nc(C)c(NC(=O)c2nnn(Cc3ccccc3)c2OC)c1C	-5.09
Cc1noc(C)c1C1CCCN1CCC(=O)N1CCc2ccccc2C1 (stereo unspecified)	-13.3
Cc1nc(NC(=O)COCC2CC2)ccc1Br	-8.55
NC(=O)C1CNCCN1C(=O)COc1ccccc1 (stereo unspecified)	-7.46
COCCN(Cc1ccc(F)cc1Cl)C(=O)c1cccc[n+]1[O-]	-0.551
CC(=O)N1C[C@H]2CCCN(S(=O)(=O)c3ccc(Cl)s3)[C@H]2C1	44.3
CCC(C)NC(=O)Cn1ccc2sc(C)cc2c1=O (stereo unspecified)	-0.388
CCCOC(=O)NCCC1CN(c2cnn(C)c(=O)c2)CCO1 (stereo unspecified)	-10.5

SMILES	cytotoxicity at 70.5 h [%]
NC(=O)COc1ccc(C(=O)NCCc2ccco2)cc1	-5.22
COc1ccc(F)c(-c2ccnc(N)c2)c1	-14.3
Cc1nn(CC(C)C)c(N(C)C)c1CNCc1cccnc1N(C)C	-13.5
CC(C)(C)CN[C@@H]1CO[C@H](CNC(=O)c2ccncc2)[C@H]1O	0.614
CCN(CC1CCCCO1)C(=O)CCNC(=O)c1ccccc1F (stereo unspecified)	-11.6
Cc1ccc(C(=O)N2CCc3ncnc(C)c3CC2)o1	9.18
CN(C)C(=O)CCS(=O)(=O)Cc1cc(Cl)c2c(c1)OCO2	-3.5
CCn1nc(C)c2nnn(CC(=O)Nc3cccc(C)c3)c(=O)c21	-10.1
Cc1csc2ncnc(N3CCC(Cn4cc(C(C)(C)N)nn4)CC3)c12	2.54
COc1c(CNCc2cccc(Cn3cncn3)c2)c(C)nn1C	-0.463
Cn1ccnc1CNC(=O)c1cncc(C2CCNCC2)n1	-5.18
Cc1cc(CN2CCN(C(=O)Cc3ccccc3F)CC2)on1	-14
Cc1ccc(-c2nc(CN3CCN(CCO)CC3)co2)cc1	-9.54
Fc1ccccc1Sc1ccccc1CNC1=NCCN1	-0.773
Cn1ccc2ccc(C(=O)N3CC[C@@]4(O)CCCC[C@H]4C3)cc21	7.95
Cc1nc(C)n(CC2CCCN2CCOc2ccccc2C#N)n1 (stereo unspecified)	-13.6
CC(C)NC(=O)N1CCn2c(nnc2C2CCCN2)C1 (stereo unspecified)	-9.64
Cc1ccc(Cl)cc1S(=O)(=O)NCc1cnc(N(C)C)n1C	-11.7
CCN(CC)CCn1cnc(-c2ccccc2)c1-c1ncc[nH]1	-10.3
COc1ccnc(N2CCc3ccc(OC(F)F)cc3C2)n1	-2.84
Cc1cc(F)ccc1CNCc1cccc(C(=O)N2CCCC2)c1	-1.53

SMILES	cytotoxicity at 70.5 h [%]
Cc1cccc(CNCC2COC3(CCCC3)O2)c1C (stereo unspecified)	3.58
CC(Cn1ccnc1)NC(=O)N1CCN(Cc2ccsc2)CC1 (stereo unspecified)	-2.59
CN(C)Cc1ccnc(NS(=O)(=O)CCc2ccccc2)c1	3.89
COCCCn1ccc(NC2CCOCC2)n1	-7.45
CC(C)N1C[C@H](NC(=O)c2coc(COc3cccc(F)c3)n2)[C@@H](O)C1	2.02
CCc1cnc(N2CC[C@@H]3CN(C(=O)c4ccco4)CCO[C@@H]3C2)nc1	-10.8
O=C(N1CCOCC1)N1CCc2ncc(CN3CCCCC3)n2CC1	-12.1
CC(C)CNc1c(NCc2ccco2)c(=O)c1=O	-11.5
CC(=O)NC[C@]1(O)CCN(C(=O)c2ccc(C)c(F)c2)C[C@H]1O	-2.74
CO[C@H]1C[C@@H](O)C12CCN(C(=O)NCc1ccco1)CC2	17.8
COC(=O)c1cccc(S(=O)(=O)NC(=O)c2ccccc2F)c1	-5.66
COCCC1COC2(CCN(C(=O)c3cccnc3)CC2)C1 (stereo unspecified)	-13
CC(C)(CN1CCC2(CCNCC2)CC1)N1CCOCC1	-3.64
O=C(NCc1ccco1)[C@H]1C[C@H]2OCC[C@H]2N(C(=O)c2ccco2)C1	-8.55
CCc1nc(CN(C(C)=O)C2CCN(CC3CCOCC3)C2)no1 (stereo unspecified)	-9.95
COCc1cncc2c1CCN(C(=O)c1cscn1)C2	20.4
COCCNC(=O)C(C)n1nc(-c2ccc(C)o2)cc(N)c1=O (stereo unspecified)	39.4
c1cnc(N2CCO[C@H]3CN(CC4CC4)C[C@H]32)nc1	-8.99
